Measured values published in patent US20230348401A1, “Inhibitors of Glucose-6-phosphate Dehydrogenase and Uses Thereof” (The Trustees of Princeton University, priority 2020, published 2023).

What was measured:
RBCs = experiment: NADPH pools in red blood cells; type: cell-based, mouse
Description: To isolate red blood cells, mice were euthanized by cervical dislocation followed by collection of approximately 200 µL whole blood via cardiac puncture into tubes containing 7.5 µL heparin (1000USP/mL, H3393, Sigma Aldrich). The cells were incubated on ice for approximately 5 minutes, then centrifuged (5 minutes, 500 rpm, 4° C.) followed by aspiration of the serum and buffy coat layer. Cells were gently resuspended in PBS and then pelleted (5 minutes, 500 rpm, 4° C.) three times. Cells were then resuspended in RPMI media and used immediately for experiments.
For suspension cells (including T cells and red blood cells), 2×10^6 cells were seeded in 1 mL of media in 12-well plates and incubated with appropriate media, which included isotope tracers and/or chemical inhibitors and/or cytokines, as described. For all experiments involving small molecule agents, DMSO concentrations were <0.2%. After 2 hours, cell suspensions were transferred to 1.5 mL tubes and pelleted (30 seconds, 6000 rpm, room temperature). Media was removed by aspiration and metabolome extraction was performed by the addition of 75 µL of ice cold solvent (40:40:20 ACN:MeOH:H2O + 0.5%FA). After a 5-minute incubation on ice, acid was neutralized by the addition of NH4HCO3. […]

[1] = system: active CD8+ or CD4+ cells; experiment: Intracellular cytokines in active T cells after PMA and ionomycin; type: cell-based, mouse
Description: To analyze intracellular cytokines, active T cells were re-stimulated with PMA (20 ng/ml) and ionomycin (1 µg/ml) in the presence of GolgiStop and increasing concentrations of G6PDi-1. After a 6-hour incubation period, cells were collected, washed with PBS and stained with the viability dye Live/Dead Aqua. Cells were then washed with staining buffer and stained for surface markers: CD4 (APC-Cy7, clone RM4-5,), CD8a (PerCP-Cy5.5, clone 53-6.7). Cells were then fixed and permeabilized and stained for intracellular cytokines: IFN-γ (FITC, clone XMG1.2), TNFα (PE-Cyanine7, clone MP6-XT22) and IL-2 (PE, clone JES6-5H4). To analyze intracellular cytokines, mature macrophages were stimulated with LPS (100 ng/mL) + IFNγ (20 ng/mL) in the presence of GolgiStop and increasing concentrations of G6PDi-1. After a 6-hour incubation period, cells were collected, washed with PBS and stained with the viability dye Live/Dead Aqua. Cells were then fixed and permeabilized and stained for intracellular cytokines: TNFα (PE-Cyanine7, clone MP6-XT22) and IL-10 (V450, clone JES5-16E3).

mouse neutrophils = experiment: Neutrophil oxidative burst assay (mouse); type: cell-based; conditions: PMA, 50 µM
Description: Murine neutrophils were isolated from 8-12-week old C56BL/6 mice. Mice were bred and maintained according to the University of Wisconsin Institutional Animal Care and Use Committee (Protocol No. M006219). Mice were euthanized by cervical dislocation, and bone marrow cells were harvested from femur and tibia within 30 minutes. Cell suspensions were passed through a 70-µm cell strainer. Neutrophils were prepared using a negative selection kit (EasySep Mouse Neutrophil Enrichment Kit, Stem Cell Technologies), following the manufacturer’s instructions. Cells were cultured in RPMI 1640 media supplemented with 10% heat-inactivated FBS, 100 U/ml penicillin, 100 µg/ml streptomycin, 5 mM HEPES, and 2 mM EDTA. To stimulate neutrophils, 100 nM phorbol 12-myristate 13-acetate (PMA) (Cayman Chemical) was added to the media; metabolites were extracted after 30 minutes of stimulation.
Suspended neutrophils were plated in culture wells pre-coated with CELL-TAK™ (Corning), spun at 200 × g for 1 minute with minimal acceleration/deceleration, and then incubated for 1 hour at 37° C. Murine neutrophils were plated at 2×10^5 cells/well in RPMI 1640 media without sodium bicarbonate. […] Oxidative burst was stimulated with PMA (100 nM, Cayman Chemical); oxygen consumption rate was measured using the XF-96e extracellular flux analyzer (Seahorse Bioscience).

colony formation = experiment: Colony formation; type: cell-based; conditions: dose-response; rescued by exogenous antioxidants
T cell lineages = experiment: NADPH and NADP+ pools across cell types (LC-MS); type: cell-based
Description: For suspension cells (including T cells and red blood cells), 2×10^6 cells were seeded in 1 mL of media in 12-well plates and incubated with appropriate media, which included isotope tracers and/or chemical inhibitors and/or cytokines, as described. For all experiments involving small molecule agents, DMSO concentrations were <0.2%. After 2 hours, cell suspensions were transferred to 1.5 mL tubes and pelleted (30 seconds, 6000 rpm, room temperature). Media was removed by aspiration and metabolome extraction was performed by the addition of 75 µL of ice cold solvent (40:40:20 ACN:MeOH:H2O + 0.5%FA). After a 5-minute incubation on ice, acid was neutralized by the addition of NH4HCO3. After centrifugation (15 minutes, 16000 rpm, 4° C.), the resulting supernatant was transferred to a clean tube, frozen on dry ice and kept at -80° C. until LC-MS analysis.
Metabolites were analyzed using a quadrupole-orbitrap mass spectrometer (Q Exactive Plus, Thermo Fisher Scientific, Waltham, MA), coupled to hydrophilic interaction chromatography (HILIC) with LC separation on a XBridge BEH Amide column (Waters), or a stand-alone orbitrap (Thermo-Fisher Exactive) coupled to reversed-phase ion-pairing chromatography with LC separation on a HSS-T3 column (Waters). […]

In the case of `N#Cc1cc(Nc2ncc3c(n2)CCCCC3=O)cs1` [Compound 2, 4-([5-oxo-6H,7H,8H,9H-cyclohepta[d]pyrimidin-2-yl]amino)thiophene-2-carbonitrile], the “sensitivity of NADPH pools” value (RBCs) is reported as “fairly sensitive”, the cytokine production ([1]; CD8+ and CD4+ T cells, PMA and ionomycin, 6 h) is reported as “blocked cytokine production” and the “IFNγ mRNA” value ([1]; active CD8+ T cells) is reported as “decreased”. The “oxidative burst (oxygen consumption rate)” value (mouse neutrophils) was “decreased oxidative burst”, the colony formation (colony formation) was “dose-dependent decrease” and the “decrease in NADPH” value (T cell lineages) was greater than 10 fold. For the same compound, the “increase in NADP+” value (T cell lineages) was 5-10 fold.
